According to ChEMBL document CHEMBL1759965, “Synthesis and pharmacological evaluation of bivalent antagonists of the nociceptin opioid receptor” (Eur J Med Chem, 2011):
Calls of active or inactive are those of the source. The calls are words filed in the database; no cut-off is given here.

Experiments:
Nociceptin receptor [1] = target: T1, Nociceptin receptor (Homo sapiens, UniProt P41146); test: Displacement of [125I]Tyr14-nociceptin from human NOP receptor expressed in human HEK293 cells after 90 mins by scintillation counting
T1 sequence (P41146 whole entry): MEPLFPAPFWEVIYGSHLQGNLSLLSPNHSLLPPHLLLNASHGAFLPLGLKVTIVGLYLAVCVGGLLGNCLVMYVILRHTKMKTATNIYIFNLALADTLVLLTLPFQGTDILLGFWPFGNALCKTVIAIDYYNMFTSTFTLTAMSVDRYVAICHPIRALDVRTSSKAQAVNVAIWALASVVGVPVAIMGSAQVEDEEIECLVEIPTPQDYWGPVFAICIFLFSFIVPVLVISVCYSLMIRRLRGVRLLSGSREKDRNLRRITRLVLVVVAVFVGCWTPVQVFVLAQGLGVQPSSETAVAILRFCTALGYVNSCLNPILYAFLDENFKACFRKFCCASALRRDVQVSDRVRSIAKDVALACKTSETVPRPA

Nociceptin receptor [2] = target: T1, Nociceptin receptor; test: Antagonist activity at human NOP receptor expressed in human HEK293 cells assessed as inhibition of GTPgammaS binding in presence of 300 nM GDP relative to control; assay type: functional, cell-based
[3] = target: Delta-type opioid receptor (Homo sapiens) (UniProt P41143); test: Displacement of [3H]-naltrindole from human delta opioid receptor expressed in human HEK293 cells after 2 hrs by scintillation counting; assay type: cell-based
Sequence of Delta-type opioid receptor (Homo sapiens) (P41143 whole entry): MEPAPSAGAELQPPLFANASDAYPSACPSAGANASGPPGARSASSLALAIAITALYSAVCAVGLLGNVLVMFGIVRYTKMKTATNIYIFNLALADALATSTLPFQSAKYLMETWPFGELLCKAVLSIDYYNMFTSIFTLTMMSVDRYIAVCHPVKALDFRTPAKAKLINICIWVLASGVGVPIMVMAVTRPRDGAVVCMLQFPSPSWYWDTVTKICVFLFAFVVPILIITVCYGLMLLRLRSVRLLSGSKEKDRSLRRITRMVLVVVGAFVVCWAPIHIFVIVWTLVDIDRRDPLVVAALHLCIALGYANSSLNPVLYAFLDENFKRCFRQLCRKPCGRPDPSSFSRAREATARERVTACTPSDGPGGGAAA

[4] = target: Kappa-type opioid receptor (Homo sapiens, UniProt P41145); test: Displacement of [3H]-diprenorphine from human kappa opioid receptor expressed in human HEK293 cells after 2 hrs by scintillation counting
Sequence of Kappa-type opioid receptor (P41145 whole entry): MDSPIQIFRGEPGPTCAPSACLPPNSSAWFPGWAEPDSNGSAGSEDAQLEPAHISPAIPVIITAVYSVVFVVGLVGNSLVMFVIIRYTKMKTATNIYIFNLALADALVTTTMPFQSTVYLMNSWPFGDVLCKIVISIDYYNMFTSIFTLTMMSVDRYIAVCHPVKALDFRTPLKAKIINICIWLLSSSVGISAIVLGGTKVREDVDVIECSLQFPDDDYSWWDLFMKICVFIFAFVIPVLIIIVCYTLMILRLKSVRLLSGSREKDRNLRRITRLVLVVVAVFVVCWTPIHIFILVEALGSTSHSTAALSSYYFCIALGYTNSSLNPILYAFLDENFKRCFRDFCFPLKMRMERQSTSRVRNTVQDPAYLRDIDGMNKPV

Homo sapiens [5] = organism: Homo sapiens; test: Selectivity ratio of IC50 for human mu opioid receptor to IC50 for human NOP receptor
Mu-type opioid receptor = Mu-type opioid receptor (Homo sapiens, UniProt P35372); test: Displacement of [3H]-naltrindole from human mu opioid receptor expressed in CHO cells after 2 hrs by scintillation counting; assay type: cell-based
Sequence of Mu-type opioid receptor (P35372 whole entry): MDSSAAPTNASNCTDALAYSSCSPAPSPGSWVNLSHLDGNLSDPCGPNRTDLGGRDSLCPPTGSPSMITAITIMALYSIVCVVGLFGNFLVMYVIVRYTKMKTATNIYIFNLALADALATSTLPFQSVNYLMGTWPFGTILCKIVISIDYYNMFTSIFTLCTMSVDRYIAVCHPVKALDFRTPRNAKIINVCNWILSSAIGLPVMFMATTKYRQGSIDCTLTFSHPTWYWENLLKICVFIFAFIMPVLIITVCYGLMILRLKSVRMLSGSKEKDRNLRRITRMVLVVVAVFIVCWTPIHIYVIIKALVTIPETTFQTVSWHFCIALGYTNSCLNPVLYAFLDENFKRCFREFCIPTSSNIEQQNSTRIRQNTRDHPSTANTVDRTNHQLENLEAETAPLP

Homo sapiens [6] = organism: Homo sapiens; test: Selectivity ratio of IC50 for human kappa opioid receptor to IC50 for human NOP receptor

| SMILES | IC50 (Nociceptin receptor [1]) | Activity (Nociceptin receptor [2]) | Activity [3] | IC50 [4] | Ratio IC50 (Homo sapiens [5]) | IC50 (Mu-type opioid receptor) | Ratio IC50 (Homo sapiens [6]) |
| --- | --- | --- | --- | --- | --- | --- | --- |
| Cc1cc(N)c2cc(NC(=O)c3ccccc3COc3ccc(/C=N/CCCC/N=C/c4ccc(OCc5ccccc5C(=O)Nc5ccc6nc(C)cc(N)c6c5)cc4)cc3)ccc2n1 | 35.6 nM | Active | inactive |  |  |  |  |
| Cc1cc(N)c2cc(NC(=O)c3ccccc3COc3ccc(CNCCCNCc4ccc(OCc5ccccc5C(=O)Nc5ccc6nc(C)cc(N)c6c5)cc4)cc3)ccc2n1 | 76.5 nM | Active | inactive | 5480 nM | 15 | 468 nM | 177 |
| Cc1cc(N)c2cc(NC(=O)c3ccccc3COc3ccc(/C=N/CCCCC/N=C/c4ccc(OCc5ccccc5C(=O)Nc5ccc6nc(C)cc(N)c6c5)cc4)cc3)ccc2n1 | 50.9 nM | Active | inactive |  |  |  |  |
| Cc1cc(N)c2cc(NC(=O)c3ccccc3COc3ccc(CNCCCCCCCN)cc3)ccc2n1 | 246 nM | Active | inactive | 998 nM | 57 | 9980 nM | 5.7 |
| CCCCCCCC/N=C/c1ccc(OCc2ccccc2C(=O)Nc2ccc3nc(C)cc(N)c3c2)cc1 | 147 nM | Active | inactive |  |  |  |  |
| Cc1cc(N)c2cc(NC(=O)c3ccccc3COc3ccc(CNCCCCCCCCCCNCc4ccc(OCc5ccccc5C(=O)Nc5ccc6nc(C)cc(N)c6c5)cc4)cc3)ccc2n1 | 32.7 nM | Active | inactive | 900 nM | 45 | 1320 nM | 31 |
| Cc1cc(N)c2cc(NC(=O)c3ccccc3COc3ccc(CNCCCCCCCCCNCc4ccc(OCc5ccccc5C(=O)Nc5ccc6nc(C)cc(N)c6c5)cc4)cc3)ccc2n1 | 28.1 nM | Active | inactive | 1050 nM | 40 | 1160 nM | 36 |
| Cc1cc(N)c2cc(NC(=O)c3ccccc3COc3ccc(CNCCCCN)cc3)ccc2n1 | 800 nM | Active | inactive | 4260 nM | 9 | 5330 nM | 7.2 |
| Cc1cc(N)c2cc(NC(=O)c3ccccc3COc3ccc(CNCCCCCCCCCN)cc3)ccc2n1 | 212 nM | Active | inactive | 6180 nM | 46 | 7070 nM | 40 |
| Cc1cc(N)c2cc(NC(=O)c3ccccc3COc3ccc(CNCCCCCCCCNCc4ccc(OCc5ccccc5C(=O)Nc5ccc6nc(C)cc(N)c6c5)cc4)cc3)ccc2n1 | 31.6 nM | Active | inactive | 1270 nM | 56 | 1900 nM | 37 |
| CCCCCCCCCC/N=C/c1ccc(OCc2ccccc2C(=O)Nc2ccc3nc(C)cc(N)c3c2)cc1 | 184 nM | Active | inactive |  |  |  |  |
| CCCCCCNCc1ccc(OCc2ccccc2C(=O)Nc2ccc3nc(C)cc(N)c3c2)cc1 | 1220 nM | Active | inactive | 1160 nM | 2.6 | 2590 nM | 1.2 |
| Cc1cc(N)c2cc(NC(=O)c3ccccc3COc3ccc(/C=N/CCCCCCCCC/N=C/c4ccc(OCc5ccccc5C(=O)Nc5ccc6nc(C)cc(N)c6c5)cc4)cc3)ccc2n1 | 82.7 nM | Active | inactive |  |  |  |  |
| Cc1cc(N)c2cc(NC(=O)c3ccccc3COc3ccc(CNCCCCCCNCc4ccc(OCc5ccccc5C(=O)Nc5ccc6nc(C)cc(N)c6c5)cc4)cc3)ccc2n1 | 71.7 nM | Active | inactive | 1350 nM | 31 | 1390 nM | 30 |
| CCCCCCCCNCc1ccc(OCc2ccccc2C(=O)Nc2ccc3nc(C)cc(N)c3c2)cc1 | 483 nM | Active | inactive | 4950 nM | 13 | 4340 nM | 15 |
| Cc1cc(N)c2cc(NC(=O)c3ccccc3COc3ccc(/C=N/CCCCCC/N=C/c4ccc(OCc5ccccc5C(=O)Nc5ccc6nc(C)cc(N)c6c5)cc4)cc3)ccc2n1 | 83.3 nM | Active | inactive |  |  |  |  |
| CCC/N=C/c1ccc(OCc2ccccc2C(=O)Nc2ccc3nc(C)cc(N)c3c2)cc1 | 98.9 nM | Active | inactive |  |  |  |  |
| Cc1cc(N)c2cc(NC(=O)c3ccccc3COc3ccc(CNCCCCCNCc4ccc(OCc5ccccc5C(=O)Nc5ccc6nc(C)cc(N)c6c5)cc4)cc3)ccc2n1 | 76.2 nM | Active | inactive | 1500 nM | 46 | 2510 nM | 28 |
| Cc1cc(N)c2cc(NC(=O)c3ccccc3COc3ccc(CN)cc3)ccc2n1 | 116 nM | Active | inactive |  |  |  |  |

| SMILES | IC50 (Nociceptin receptor [1]) | Activity (Nociceptin receptor [2]) | Activity [3] | IC50 [4] | Ratio IC50 (Homo sapiens [5]) | IC50 (Mu-type opioid receptor) | Ratio IC50 (Homo sapiens [6]) |
| --- | --- | --- | --- | --- | --- | --- | --- |
| CCCCCCCCCCNCc1ccc(OCc2ccccc2C(=O)Nc2ccc3nc(C)cc(N)c3c2)cc1 | 405 nM | Active | inactive | 4350 nM | 9.6 | 2750 nM | 15 |
| CCCNCc1ccc(OCc2ccccc2C(=O)Nc2ccc3nc(C)cc(N)c3c2)cc1 | 83 nM | Active | inactive | 3080 nM | 49 | 3350 nM | 45 |
| Cc1cc(N)c2cc(NC(=O)c3ccccc3COc3ccc(CNCCCCCCN)cc3)ccc2n1 | 1110 nM | Active | inactive | 1220 nM | 7.4 | 6000 nM | 1.5 |
| Cc1cc(N)c2cc(NC(=O)c3ccccc3COc3ccc(/C=N/CCC/N=C/c4ccc(OCc5ccccc5C(=O)Nc5ccc6nc(C)cc(N)c6c5)cc4)cc3)ccc2n1 | 48 nM | Active | inactive |  |  |  |  |
| CCCCCNCc1ccc(OCc2ccccc2C(=O)Nc2ccc3nc(C)cc(N)c3c2)cc1 | 732 nM | Active | inactive | 3670 nM | 16 | 4450 nM | 13 |
| Cc1cc(N)c2cc(NC(=O)c3ccccc3COc3ccc(CNCCCN)cc3)ccc2n1 | 160 nM | Active | inactive | 1650 nM | 12 | 1400 nM | 14 |
| Cc1cc(N)c2cc(NC(=O)c3ccccc3COc3ccc(CNCCCCCCCCN)cc3)ccc2n1 | 144 nM | Active | inactive | 872 nM | 3.2 | 325 nM | 8.6 |
| CCCCCCCCC/N=C/c1ccc(OCc2ccccc2C(=O)Nc2ccc3nc(C)cc(N)c3c2)cc1 | 154 nM | Active | inactive |  |  |  |  |
| CCCCCCC/N=C/c1ccc(OCc2ccccc2C(=O)Nc2ccc3nc(C)cc(N)c3c2)cc1 | 142 nM | Active | inactive |  |  |  |  |
| Cc1cc(N)c2cc(NC(=O)c3ccccc3COc3ccc(/C=N/CCCCCCC/N=C/c4ccc(OCc5ccccc5C(=O)Nc5ccc6nc(C)cc(N)c6c5)cc4)cc3)ccc2n1 | 63.1 nM | Active | inactive |  |  |  |  |
| Cc1cc(N)c2cc(NC(=O)c3ccccc3COc3ccc(CNCCCCCN)cc3)ccc2n1 | 207 nM | Active | inactive | 2150 nM | 41 | 4880 nM | 18 |
| CCCCCC/N=C/c1ccc(OCc2ccccc2C(=O)Nc2ccc3nc(C)cc(N)c3c2)cc1 | 209 nM | Active | inactive |  |  |  |  |
| CCCCC/N=C/c1ccc(OCc2ccccc2C(=O)Nc2ccc3nc(C)cc(N)c3c2)cc1 | 186 nM | Active | inactive |  |  |  |  |
| CCCCNCc1ccc(OCc2ccccc2C(=O)Nc2ccc3nc(C)cc(N)c3c2)cc1 | 1120 nM | Active | inactive | 5920 nM | 8.6 | 5110 nM | 10 |
| Cc1cc(N)c2cc(NC(=O)c3ccccc3COc3ccc(C=O)cc3)ccc2n1 | 207 nM | Active | inactive |  |  |  |  |
| Cc1cc(N)c2cc(NC(=O)c3ccccc3COc3ccc(/C=N/CCCCCCCCCC/N=C/c4ccc(OCc5ccccc5C(=O)Nc5ccc6nc(C)cc(N)c6c5)cc4)cc3)ccc2n1 | 82.1 nM | Active | inactive |  |  |  |  |
| CCCC/N=C/c1ccc(OCc2ccccc2C(=O)Nc2ccc3nc(C)cc(N)c3c2)cc1 | 309 nM | Active | inactive |  |  |  |  |
| Cc1cc(N)c2cc(NC(=O)c3ccccc3COc3ccc(/C=N/CCCCCCCC/N=C/c4ccc(OCc5ccccc5C(=O)Nc5ccc6nc(C)cc(N)c6c5)cc4)cc3)ccc2n1 | 114 nM | Active | inactive |  |  |  |  |
